Values quoted from earlier work as cited in patent US20040121025A1, “Oral composition for the treatment and prevention of bone loss” (priority 2002, published 2004).

How the values were obtained:
bone mass [1] = details: 200 mg three times daily; two years; women age 50-65; placebo groups had significant bone loss
osteoporosis [2] = details: including a form of vitamin D commonly used for osteoporosis
bone mass [3] = system: bone mass
[4] = system: parathyroid hormone, vitamin D, prostaglandin E2, and interleukin 1-beta; details: animal study, prostaglandin E2, interleukin 1-beta
bone loss [5] = details: men
bone mineral density = details: women treated with Lupron for six months; supplemental calcium; placebo decreased significantly
bone loss [6] = details: animal studies
[7] = system: bone demineralization / bone loss; details: with supplemental calcium
bone loss [8] = details: animal studies; remark: listed apart in the source
[9] = system: parathyroid-stimulated osteoclastic activity; details: ipriflavone supplementation in rats
osteoporosis [10] = details: elderly women over the age of 65
estrogen like effects = details: unlike many of the other isoflavones
bone loss [11] = details: premenopausal women

## CC(C)Oc1ccc2c(=O)c(-c3ccccc3)coc2c1 [ipriflavone, 7-isopropoxysioflavone]
Bone mass [1]
  bone mass: maintained or improved slightly
Osteoporosis [2]
  effect on other bone-preserving agents: enhance the effect of other bone-preserving agents
Bone mass [3]; 0.15-0.30 mg/day estrogen with ipriflavone versus 0.625 mg/day or higher
  maintaining bone mass with lower doses of estrogen: equally effective in maintaining bone mass
Bone mass [3]; in vivo
  effect on the effects of estrogen on bone: enhance the effects of estrogen on bone
[4]
  inhibition of compounds involved in increased resorption of bone: inhibited a number of compounds known to be involved in increased resorption of bone
Bone loss [5]
  preventing bone loss: effective in preventing bone loss in men
Bone mineral density
  bone density: no changes in bone density
Bone loss [6]
  bone loss associated with long term steroid use: inhibited bone loss
[7]; post-menopausal women or women who have had their ovaries removed
  safety and efficacy in halting bone loss: safe and effective in halting bone loss
[7]; postmenopausal women
  halting bone demineralization: effective in halting bone demineralization
Bone loss [8]
  bone loss associated with immobilization: inhibited bone loss
[9]
  parathyroid-stimulated osteoclastic activity and resulting hypercalcemia: inhibited in a dosedependent manner
Osteoporosis [10]
  treatment of osteoporosis: particularly effective
Estrogen like effects
  estrogen like effects: does not exhibit estrogen like effects
Bone loss [11]
  rapid bone loss that follows ovariectomy: prevents the rapid bone loss that follows ovariectomy
